US20250230193A1, “CYCLIC COMPOUND HAVING SELECTIVE KRAS INHIBITORY EFFECT ON HRAS AND NRAS” (CHUGAI SEIYAKU KABUSHIKI KAISHA, priority 2022, published 2025)

Columns and labels:
[1] = target: GDP-bound NRAS wild-type protein (Homo sapiens, UniProt P01111); assay: Binding to NRAS by surface plasmon resonance (SPR), Single Cycle Kinetics; conditions: KD ratio, GDP-bound NRAS wild-type vs GDP-bound KRAS wild-type, SPR
[2] = target: GDP-bound HRAS wild-type protein (Homo sapiens, UniProt P01112); assay: Binding to HRAS by surface plasmon resonance (SPR), Single Cycle Kinetics; conditions: KD ratio, GDP-bound HRAS wild-type vs GDP-bound KRAS wild-type, SPR
Chain of GDP-bound HRAS wild-type protein (P01112 whole entry): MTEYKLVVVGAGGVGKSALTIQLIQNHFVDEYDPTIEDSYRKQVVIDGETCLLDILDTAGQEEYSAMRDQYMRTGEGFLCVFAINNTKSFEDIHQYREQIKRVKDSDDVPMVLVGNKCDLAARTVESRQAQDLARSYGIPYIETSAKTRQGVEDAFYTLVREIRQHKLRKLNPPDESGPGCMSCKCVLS

Chain of GDP-bound NRAS wild-type protein (P01111 whole entry): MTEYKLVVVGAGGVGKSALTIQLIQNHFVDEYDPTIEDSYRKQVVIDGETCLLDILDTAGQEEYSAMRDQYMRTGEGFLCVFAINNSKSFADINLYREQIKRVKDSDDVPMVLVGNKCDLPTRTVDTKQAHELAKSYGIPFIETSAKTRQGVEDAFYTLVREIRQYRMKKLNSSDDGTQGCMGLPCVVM

| SMILES | NRAS/KRAS (ratio of KD value with respect to NRAS to KD value with respect to KRAS) [1] | HRAS/KRAS (ratio of KD value with respect to HRAS to KD value with respect to KRAS) [2] |
| --- | --- | --- |
| CCO[C@@H]1C[C@H]2C(=O)NC3(CCC3)C(=O)N(C)[C@@H](C3CCCC3)C(=O)N(C)[C@H](C(=O)N(C)C)CC(=O)N(C)[C@@H](Cc3cccs3)C(=O)N[C@@H]([C@@H](C)CC)C(=O)N(C)CC(=O)N(C)[C@H]3C/C=C\CCN(C3=O)[C@@H](Cc3ccc(C(F)(F)F)cc3)C(=O)N(C)CC(=O)N[C@@H](CCc3cc(F)c(C(F)(F)F)c(F)c3)C(=O)N2C1 [PP1123] | A (a compound having 10 or more and less than 20 is denoted as A) | B (a compound having 3 or more and less than 10 is denoted as B) |
| CCO[C@@H]1C[C@H]2C(=O)NC3(CCC3)C(=O)N(C)[C@@H](C3CCCC3)C(=O)N(C)[C@H](C(=O)N(C)C)CC(=O)N(C)[C@@H](CC(F)(F)F)C(=O)N[C@@H]([C@@H](C)CC)C(=O)N(C)CC(=O)N(C)[C@H]3C/C=C\CCN(C3=O)[C@@H](Cc3ccc(C(F)(F)F)cc3)C(=O)N(C)CC(=O)N[C@@H](CCc3cc(F)c(C(F)(F)F)c(F)c3)C(=O)N2C1 [PP1124] | A (a compound having 10 or more and less than 20 is denoted as A) | B (a compound having 3 or more and less than 10 is denoted as B) |
| CCO[C@@H]1C[C@H]2C(=O)NC3(CCC3)C(=O)N(C)[C@@H](C3CCCC3)C(=O)N(C)[C@H](C(=O)N(C)C)CC(=O)N(C)[C@@H](Cc3cccc(F)c3)C(=O)N[C@@H]([C@@H](C)CC)C(=O)N(C)CC(=O)N(C)[C@H]3C/C=C\CCN(C3=O)[C@@H](Cc3ccc(C(F)(F)F)cc3)C(=O)N(C)CC(=O)N[C@@H](CCc3cc(F)c(C(F)(F)F)c(F)c3)C(=O)N2C1 [PP1126] | A (a compound having 10 or more and less than 20 is denoted as A) | A (a compound having 10 or more and less than 20 is denoted as A) |
| CCO[C@@H]1C[C@H]2C(=O)NC3(CCC3)C(=O)N(C)[C@@H](C3CCCC3)C(=O)N(C)[C@H](C(=O)N(C)C)CC(=O)N(C)[C@@H](Cc3cccc(Cl)c3)C(=O)N[C@@H]([C@@H](C)CC)C(=O)N(C)CC(=O)N(C)[C@H]3C/C=C\CCN(C3=O)[C@@H](Cc3ccc(C(F)(F)F)cc3)C(=O)N(C)CC(=O)N[C@@H](CCc3cc(F)c(C(F)(F)F)c(F)c3)C(=O)N2C1 [PP1127] | AA (a compound having 20 or more is denoted as AA) | A (a compound having 10 or more and less than 20 is denoted as A) |
| CC[C@H](C)[C@@H]1NC(=O)[C@H](CC)N(C)C(=O)C[C@@H](C(=O)N(C)C)N(C)C(=O)[C@H](C2CCCC2)N(C)C(=O)C2(CCC2)NC(=O)[C@@H]2C[C@H](OC)CN2C(=O)[C@H](CCc2cc(F)c(C(F)(F)F)c(F)c2)NC(=O)CN(C)C(=O)[C@H](Cc2ccc(C(F)(F)F)cc2)N2CC/C=C\C[C@@H](C2=O)N(C)C(=O)CN(C)C1=O [PP1128] | AA (a compound having 20 or more is denoted as AA) | A (a compound having 10 or more and less than 20 is denoted as A) |
| CC[C@H](C)[C@@H]1NC(=O)[C@H](CC)N(C)C(=O)C[C@@H](C(=O)N(C)C)N(C)C(=O)[C@H](C2CCCC2)N(C)C(=O)C2(CCC2)NC(=O)[C@@H]2CC(F)(F)CN2C(=O)[C@H](CCc2cc(F)c(C(F)(F)F)c(F)c2)NC(=O)CN(C)C(=O)[C@H](Cc2ccc(C(F)(F)F)cc2)N2CC/C=C\C[C@@H](C2=O)N(C)C(=O)CN(C)C1=O [PP1129] | A (a compound having 10 or more and less than 20 is denoted as A) | B (a compound having 3 or more and less than 10 is denoted as B) |
